In experiment [1] the target is ATP-sensitive inward rectifier potassium channel 1 (Homo sapiens, UniProt P48048). Briefly: ROMK inhibition by analog compounds, SAR follow-up, cell-based, thallium flux, analog library (AID 435017). Type of experiment: functional.
The target in experiment [2] is T1, E3 ubiquitin-protein ligase XIAP (Homo sapiens, UniProt P98170). Description: Counter Screen using XIAP-Bir3 for Chemical Antagonists of Bir1/2 domains of IAP-family anti-apoptotic proteins. [Related pubchem assays (depositor defined):AID1018, AID1449, AID1514, AID1638, AID1749, AID1750, AID488957, AID488963].
For experiment [3], the target named is T1, E3 ubiquitin-protein ligase XIAP. Briefly: XIAP antagonists, biochemical, IAP family, fluorescence polarization (AID 1018). In kind it is functional.
In experiment [4] the target is Luciferin 4-monooxygenase (Photinus pyralis, UniProt P08659). Briefly: Counter Screen for Luciferase-based Assay Positives. [Related pubchem assays: 620, 618, 411 ]. (Counterscreens check selectivity or assay interference.)
Another experiment relates to HT-1080. Description: cytotoxicity in HT1080 fibrosarcoma cells, cell-based, fluorescence readout (AID 620). The conditions noted are these: Homo sapiens. Type of experiment: functional.
For experiment [5], the target named is Glyceraldehyde-3-phosphate dehydrogenase (Homo sapiens, UniProt P04406).
Experiment [6] addresses T2, Bcl-2-related protein A1 (Mus musculus, UniProt Q07440).
T2 sequence (Q07440 whole entry): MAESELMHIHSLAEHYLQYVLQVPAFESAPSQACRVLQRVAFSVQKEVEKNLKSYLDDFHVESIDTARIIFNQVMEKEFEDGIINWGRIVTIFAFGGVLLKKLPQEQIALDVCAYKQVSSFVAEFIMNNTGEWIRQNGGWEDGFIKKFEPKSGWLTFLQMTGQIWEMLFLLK
Description: Bfl-1 inhibitors blocking BH3 peptide binding, confirmation, biochemical, TR-FRET, mouse Bfl-1 (AID 621).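 Further: TR-FRET binding of GST-Bfl-1 to FITC-labelled Bid peptide via terbium antibody.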 Background: In TR-FRET formats the signal depends on donor and acceptor labels being close together.

The target in experiment [7] is T2, Bcl-2-related protein A1. Description: Bfl-1 binding inhibitors, SAR follow-up, biochemical, fluorescence polarization (AID 1070).
Experiment [8] is described as follows: HEp-2 cell cytotoxicity, dose response, cytotoxicity control for RSV inhibitor project, HTS (AID 2410). In kind it is functional. The conditions noted are these: human respiratory syncytial virus.
Experiment [9] concerns Vero. Description: cells. Type of experiment: functional, cell-based. The conditions noted are these: Chlorocebus sabaeus.
The test system of experiment [10] is Vero. Description: cells. Type of experiment: functional. The conditions noted are these: Chlorocebus sabaeus.
The nature of experiment [11]: A Cell-Based Counter Screen testing Compounds that Inhibit VEEV TC-83, in strain KU V3526. Type of experiment: functional.
The nature of experiment [12]: A Cell-Based Confirmatory Screen for Compounds that Inhibit VEEV, TC-83 (2). Type of experiment: functional.
Experiment [13] can be described thus: Vero 76 cell cytotoxicity, dose response, cytotoxicity control, set 2 (AID 602240). Type of experiment: functional. The settings on record: Venezuelan equine encephalitis virus.
Experiment [14] in a line: M. tuberculosis H37Rv growth inhibitors, H37Rv strain (AID 1626). In kind it is functional.

The source made the active and inactive calls.

The IC50 is the midpoint of a concentration-inhibition curve. Usually EC50 stands for the midpoint of the concentration-response curve. As usually defined, the CC50 is the concentration that lowers cell viability or growth by half.

T1 sequence (P98170 whole entry): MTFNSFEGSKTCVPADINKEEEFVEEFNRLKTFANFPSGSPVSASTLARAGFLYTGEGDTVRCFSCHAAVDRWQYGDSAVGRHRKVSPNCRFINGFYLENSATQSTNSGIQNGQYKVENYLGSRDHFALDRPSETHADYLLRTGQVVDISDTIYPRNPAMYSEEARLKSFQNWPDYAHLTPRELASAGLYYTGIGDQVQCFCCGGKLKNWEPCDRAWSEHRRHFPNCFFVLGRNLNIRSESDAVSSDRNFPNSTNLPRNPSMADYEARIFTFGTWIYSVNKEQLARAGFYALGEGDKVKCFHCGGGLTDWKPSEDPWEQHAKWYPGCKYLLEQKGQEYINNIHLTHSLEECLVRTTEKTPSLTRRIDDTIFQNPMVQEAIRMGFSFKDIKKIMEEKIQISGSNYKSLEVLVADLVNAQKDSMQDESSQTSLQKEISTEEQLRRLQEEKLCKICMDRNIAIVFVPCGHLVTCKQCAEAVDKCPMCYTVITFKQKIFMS
Sequence of ATP-sensitive inward rectifier potassium channel 1 (P48048 whole entry): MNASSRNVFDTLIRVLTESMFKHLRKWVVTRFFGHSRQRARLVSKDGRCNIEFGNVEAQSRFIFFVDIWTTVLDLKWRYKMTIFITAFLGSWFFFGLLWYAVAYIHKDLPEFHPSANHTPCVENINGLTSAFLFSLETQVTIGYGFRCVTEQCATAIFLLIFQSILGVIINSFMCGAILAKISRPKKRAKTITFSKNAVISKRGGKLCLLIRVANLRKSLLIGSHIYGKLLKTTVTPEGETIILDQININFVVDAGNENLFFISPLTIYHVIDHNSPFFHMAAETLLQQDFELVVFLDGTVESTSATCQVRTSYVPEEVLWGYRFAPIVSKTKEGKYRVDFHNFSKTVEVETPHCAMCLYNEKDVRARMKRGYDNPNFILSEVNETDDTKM
Sequence of Glyceraldehyde-3-phosphate dehydrogenase (P04406 whole entry): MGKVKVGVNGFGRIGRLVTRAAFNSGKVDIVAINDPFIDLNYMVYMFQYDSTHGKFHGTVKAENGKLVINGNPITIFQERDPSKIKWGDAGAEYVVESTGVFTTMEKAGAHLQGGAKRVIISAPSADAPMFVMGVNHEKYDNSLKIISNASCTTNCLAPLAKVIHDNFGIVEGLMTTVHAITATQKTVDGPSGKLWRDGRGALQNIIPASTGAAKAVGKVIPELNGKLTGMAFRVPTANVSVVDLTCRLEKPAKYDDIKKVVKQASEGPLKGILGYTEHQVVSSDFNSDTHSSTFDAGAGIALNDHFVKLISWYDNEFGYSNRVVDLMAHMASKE
Sequence of Luciferin 4-monooxygenase (P08659 whole entry): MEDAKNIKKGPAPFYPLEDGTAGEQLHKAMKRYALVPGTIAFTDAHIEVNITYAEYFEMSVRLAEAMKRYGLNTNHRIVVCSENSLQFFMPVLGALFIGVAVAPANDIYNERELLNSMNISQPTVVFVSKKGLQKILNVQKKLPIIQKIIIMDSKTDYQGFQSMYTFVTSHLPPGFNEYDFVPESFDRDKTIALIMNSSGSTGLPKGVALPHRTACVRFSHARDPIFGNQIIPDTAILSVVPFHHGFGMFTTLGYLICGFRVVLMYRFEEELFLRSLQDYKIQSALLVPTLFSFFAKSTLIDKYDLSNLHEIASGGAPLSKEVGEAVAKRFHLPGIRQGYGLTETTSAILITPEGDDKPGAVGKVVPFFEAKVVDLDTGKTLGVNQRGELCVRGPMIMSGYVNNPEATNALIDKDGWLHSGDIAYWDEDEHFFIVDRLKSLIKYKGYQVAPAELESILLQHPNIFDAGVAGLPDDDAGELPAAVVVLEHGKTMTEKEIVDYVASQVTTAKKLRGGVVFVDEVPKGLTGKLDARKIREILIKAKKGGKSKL

As to `COc1ccc([N+](=O)[O-])cc1CN1CCOCCOCCN(Cc2ccc([N+](=O)[O-])cc2OC)CCOCC1`, the IC50 in experiment [1] is 1.5 µM (active).

On to `O=c1c2ccccc2nnn1CSc1nnc(-c2cccs2)n1Cc1ccccc1`, for which the results for the IC50 in experiment [2] and in experiment [3] were > 100 µM (inactive) and > 100 µM (not active), respectively.

On to `Nc1ccc2oc(-c3ccc4[nH]cnc4c3)nc2c1`, for which the EC50 in experiment [4] was 11.2 µM (active); in the experiment on HT-1080, > 50 µM (not active).

On to `O=C1C(Cl)=C(Cl)C(=O)N1c1cccc(Cl)c1Cl`, for which the figures for the IC50 (in experiment [5]; on Bcl-2-related protein A1 [6]; on Bcl-2-related protein A1 [7]) were > 100 µM (not active), 500 nM (active) and 979 nM (active), respectively.

As for `O=C(Cc1cccs1)Nc1nc2c(s1)CCCC2`, the results for the CC50 (in experiment [8]; in the experiment with Vero [10]; in experiment [13]) were 17.2 µM (active), > 25 µM (active) and > 50 µM (active), respectively. The IC50 in the experiment with Vero [9] is 6.38 µM (active); in experiment [11] it was 4.71 µM (active); in [12], 7.09 µM (active); in the experiment “cells” it was 10 µM (active).

In the case of `CCc1ccc(Nc2c([N+](=O)[O-])c(=O)oc3ccccc23)cc1`, in [14], the IC50 is > 100 µM (active).
